Experiments:
intestinal microbiome = experiment: 16S rDNA sequencing of the intestinal microbiome from mouse feces; format: in vivo; conditions: depressed mice feces
Excerpt: Fresh feces of the mice in Example 2 was taken at the sixth weekend, and total DNA was extracted from the mouse feces sample using an MP feces kit. Specific operation steps are as follows, mainly referring to the kit instructions. The mouse fecal genome was used as a template, V3-V4 fragments of 16S rDNA were amplified using a forward primer 520F (5′-AYTGGGYDTAAAGNG-3′) and a reverse primer 802R (5′-TACNVGGGTATCTAATCC-3′) as primers, and the length of a target fragment was about 247 bp. After the PCR reaction, all PCR samples in which target bands were observed were electrophoresed again, a 2.0% agarose gel was prepared, and electrophoresis was performed at 120 V for 40 min. […] The DNA concentration of the sample was measured according to a Qubit DNA3.0 kit, then a library was constructed according to a TurSeq DNA LT Sample Preparation Kit and instructions thereof, and finally determination was performed on an Illumina Miseq sequencer according to a MiSeq Regent Kit and instructions thereof. […] The sequences with the similarity greater than 97% were defined as a taxonomic unit (Operational Taxonomic Unit, OTU), and the species was determined by a Ribosomal Database Project (RDP) Naïve Bayesclassifier. The α-diversity and β-diversity of the sample were calculated to assess the bacterial diversity of the sample. […] The β-diversity was assessed by principal co-ordinates analysis (PCoA) (FIG. 9C). […]

[1] = system: regulatory T cells (Tregs); experiment: Regulatory T cells (CD4+CD25+Foxp3+) in spleen by flow cytometry; format: in vivo; conditions: chronic stress mice; sixth weekend
Protocol: (§1) The mice in Example 2 were euthanized at the sixth weekend. A fresh mouse spleen (about 50 mg) was taken, 5 mL of a pre-chilled PBS buffer was added, and the mouse spleen was cut, ground, and filtered with a 200-mesh nylon sieve to obtain a tissue cell suspension. 2 mL of an erythrocyte lysate was added for lysis for 4 min, and the lysate was removed by centrifugation at room temperature (300×g, 5 min). The obtained cell precipitate was washed with pre-cooled PBS twice, and resuspended with a certain amount of PBS to obtain a lymphocyte suspension. Antibody labeling of regulatory T cells (Tregs) was performed in accordance with the instructions of an eBioscience Mouse Regulatory T cell Staining Kit (Invitrogen Corporation, Carlsbad, CA, USA). The Tregs (CD4+CD25+Foxp3+) were detected by flow cytometry. The contents of IL-1β, IL-6 and TNF-α in the serum were detected with an ELISA kit.

depressed mice = experiment: Elevated plus-maze test; format: in vivo, C57BL/6J mice; conditions: chronic unpredictable mild stress mice; gavage; activities within 10 min
Protocol: 32 6-week-old male C57BL/6J mice were selected. After one week of adaptation to the environment, the mice were randomly divided into four groups according to body weight: a normal control group, a depression model group, a drug intervention group, and a CCFM6432 intervention group, each containing 8 mice.
Chronic unpredictable stress depression mouse model: 1-2 kinds of stimuli were randomly performed every day, and the performance time of stimuli every day was determined randomly to avoid the circadian rhythm. Each method was used for not more than three times, and the stimuli were performed for five weeks. The stimuli include: (1) fasting for 24 h; (2) water deprivation+empty bottle stimulus for 24 h; (3) tail pinching for 3 min; (4) wet padding for 24 h; (5) immobilization for 1-2 h; (6) 45° tilted cage for 24 h; (7) continuous lighting for 24 h; (8) no padding for 24 h; (9) forced swim for 15 min; and (10) separation for 24 h. […]
At the beginning of the test, a mouse was placed into a maze from the central grid facing a closed arm, and its activities within 10 min were recorded. […] The proportion of time spent in the open arms, the proportion of entries in the open arms, and the total number of entries in the elevated plus maze were calculated. […]

IL-1β, IL-6 and TNF-α = IL-1β, IL-6 and TNF-α in the serum by ELISA kit; format: in vivo; conditions: chronic stress mice; sixth weekend
Protocol: as §1

## CNCCC(Oc1ccc(C(F)(F)F)cc1)c1ccccc1 (stereo not shown) [Fluoxetine, fluoxetine]
Intestinal microbiome
  structure of the intestinal microbiome (β-diversity, PCoA): could normalize the structure of the intestinal microbiome
[1]
  immune state (proportion of Tregs in the spleen): could significantly improve the immune state
Depressed mice
  entries and time spent in the open arms: had no effect
IL-1β, IL-6 and TNF-α
  degree of inflammation (IL-1β, IL-6 and TNF-α in the serum): reduce the degree of inflammation

— patent US12419918B2, “Pediococcus acidilactici CCFM6432 for alleviating depression, food fermented thereby and application thereof” (Jiangnan University, priority 2019, dated 2025)
